Experimental data taken from US6117840A, “CS-1 peptidomimetics, compositions and methods of using the same” (Cytel Corporation, priority 1997, dated 2000).
Like-named read-outs stand apart in the source and are kept apart here. Square brackets hold non-standard residues; d marks the D form. Peptide text beside a SMILES is read from it. * marks the point of attachment. PhAc = O=C(Cc1ccccc1)*

Columns and labels:
VLA-4 = molecular target: T1, VLA-4 (Homo sapiens, UniProt P05556+P13612); format: cell-based; conditions: for RELATIVE POTENCY (inhibition of VLA-4 binding CS-1): relative to standard peptide SEQ ID NO:3 (=1), normalized IC50, about one-tenth or less of SEQ ID NO:3 assigned zero
T1 construct: host or cells: Jurkat (human T lymphoblastic line)
Experimental: Binding inhibition is measured here as a concentration of peptide that inhibits one-half the binding between a standard number of Jurkat cells and a standard amount of CS-1 peptide bound to the surface of a microtiter plate well. Those concentrations are conveniently expressed as IC50 values, smaller numbers indicating a lower concentration required to inhibit 50 percent binding and therefore greater potency. Further specifics of this assay are provided hereinafter.
Jurkat cells (ATCC TIB 152), a human T lymphoblastic line, labeled with ^51 chromium were used to assay in vitro binding inhibition provided by various peptides discussed herein.
The plates were prepared as follows: The 25-mer CS1 peptide (SEQ ID NO:1) dissolved at 0.5-1 μg/ml in a buffer of 0.1M NaHCO3 at pH 9.5 tha also contained 10 μg/ml of bovine serum albumin (BSA) or a conjugate o the CS1 peptide linked to ovalbumin (CS1-OVA) dissolved at 1-2.5 μg/ml in the same buffer was used as the substrate. Each well of the microtiter plates was coated with 50 μl of substrate or buffer alone for controls The wells were permitted to dry out completely and were then rinsed twice with PBS at pH 7.4. Nonspecific binding sites of each well were then blocked using 200 μl per well of RPMI/1 percent BSA for two hours at room temperature. Both solid phaseaffixed substrates provided similar results.
Jurkat cells (3-5×10^6 cells) were placed into a 15 ml Falcon.TM roundbottom tube with a cap. The tube was centrifuged, and the extra medium was then removed.
Two hundred microliters of a ^51 Cr labeling solution were added to th centrifuged cells and maintained in contact with the cells for 90-120 minutes in a warm room. This procedure typically provides about 50,000-100,000 cpm/well with about 80-100 percent cell viability. Longer contact times provide a greater amount of labeling but lower cell viability.
The labeled cells are washed with (i) complete medium, (ii) 1 mM EDTA/PBS and then (iii) RPMI/1 percent BSA free of serum components. The cells are centrifuged after each washing. The cells are finally resuspended in serumfree RPMI/1 percent BSA at a concentration of 1×10^6 viabl cells/ml, which provides a concentration that is diluted by onehalf in th assay.
Inhibitor peptides are prepared as stock solutions at 20 mg/ml in DMSO in 1.5 ml cryogenic screwcap vials, and were stored at -70° C. Using Flow™ roundbottom or Vbottom microtiter plates, the inhibitor peptides were prepared at twice the assay concentration in RPMI/1 percent BSA at 6 μl/well.
Four initial dilutions were typically used.
The ^51 Crlabeled cells (1×10^6 cells at 60 μl/well) were then admixed with the diluted peptide solutions. The admixtures were maintained at room temperature (about 22° C.) for 30 minutes.
One hundred microliters of each inhibitor peptide/cell admixture were transferred to the substratecoated wells. This was done in triplicate for each dilution. The resulting plates were incubated for 30 minutes at 37° C. and then washed gently three times with RPMI/1 percent BSA at 200 μl/well. Binding was observed microscopically, particularly after the second wash.
The bound cells were then lysed by the addition of a 0.5 percent solution of sodium dodecylsulfate in water at 100 μl/well. The resulting solutions were then processed for counting and calculation of IC50 values following usual procedures. Appropriate positive and negative controls were used with each plate so that the results of separate assays could be normalized and compared.

asthmatic sheep = test: Treatment of asthmatic sheep (Ascaris suum antigen); format: in vivo; conditions: for PC400, carbacol dosage to increase SRL 4-fold, 24 hours after challenge: pre-challenge values about 20-23 BU
Experimental: Six asthmatic sheep were treated in a double blind cross-over study by Dr. William M. Abraham of the Department of Research, Mount Sinai Medical Center, 4300 Alton Road, Miami Beach, Fla. 33140. […] This study was carried out generally as described in Abraham et al., J. Clin. Invest., 93:776-787 (1994).
The inhibitor peptide used here was N--phenylacetyl--Leu--Asp--Phe--D--Pro--NH2, with a control peptide that comprised the previously described peptide having the same residues in a scrambled sequence. The vehicle for the nebulized peptides was phosphate-buffered saline. The peptides were administered at a dose of 1 mg/kg each, twice a day for three days prior to challenge, as well as 0.5 hours prior to and four hours post challenge on day 4. Because this was a crossover study, each animal received one or the other treatment, followed by a rest and then the other treatment. Each animal therefore served as its own control.

BALB/c mice = test: Adoptive transfer delayed type hypersensitivity in mice (oxazolone); format: in vivo, mouse; conditions: for swelling at challenge site (in words): 6 mg/kg/day s.c. pump for 24 hours
Experimental: An adoptive transfer delayedtype hypersensitivity murine model has been developed using splenic T cells primed to oxazolone. This model is described in Elices et al., Clin. Exp. Rheum., 11(Suppl. 8):577-580 (1993), whose procedures were followed here.
Thus, BALB/c mice were shaved on the belly and painted (50 μl on the belly and 5 μl on each paw) with three percent oxazolone in acetone/olive oil (4:1) at days zero and 1. At day 5, the mice were sacrificed, their spleens removed, and splenic T cells were obtained via nylon wool columns.
Normal saline or saline containing 25×10^6 /animal of the oxazoloneimmune T cells were separately injected into naive mice. The mic were then challenged by painting 10 μl of 2 percent oxazolone onto one ear each. All procedures were carried out under sterile conditions and in endotoxingfree buffers.
Prior to challenge or saline injection, the mice were implanted with pumps that subcutaneously administered normal saline, normal saline containing the peptide N--phenylacetyl--Leu--Asp--Phe--D--Pro--NH2 or normal saline containing a peptide with a scrambled sequence continually at 6 mg/kg/day for a 24-hour time period. The swelling diameter at the site of challenge or saline injection was measured with a microcaliper 24 hours thereafter.
An expanded study was carried out as described above except that a scrambled peptide control was not used using further inhibitor peptides o Table 1 with larger groups of mice. Statistical analyses were carried out versus injection of vehicle alone. Those results are shown below in Table 2.

T1 sequence (P13612 34-1032): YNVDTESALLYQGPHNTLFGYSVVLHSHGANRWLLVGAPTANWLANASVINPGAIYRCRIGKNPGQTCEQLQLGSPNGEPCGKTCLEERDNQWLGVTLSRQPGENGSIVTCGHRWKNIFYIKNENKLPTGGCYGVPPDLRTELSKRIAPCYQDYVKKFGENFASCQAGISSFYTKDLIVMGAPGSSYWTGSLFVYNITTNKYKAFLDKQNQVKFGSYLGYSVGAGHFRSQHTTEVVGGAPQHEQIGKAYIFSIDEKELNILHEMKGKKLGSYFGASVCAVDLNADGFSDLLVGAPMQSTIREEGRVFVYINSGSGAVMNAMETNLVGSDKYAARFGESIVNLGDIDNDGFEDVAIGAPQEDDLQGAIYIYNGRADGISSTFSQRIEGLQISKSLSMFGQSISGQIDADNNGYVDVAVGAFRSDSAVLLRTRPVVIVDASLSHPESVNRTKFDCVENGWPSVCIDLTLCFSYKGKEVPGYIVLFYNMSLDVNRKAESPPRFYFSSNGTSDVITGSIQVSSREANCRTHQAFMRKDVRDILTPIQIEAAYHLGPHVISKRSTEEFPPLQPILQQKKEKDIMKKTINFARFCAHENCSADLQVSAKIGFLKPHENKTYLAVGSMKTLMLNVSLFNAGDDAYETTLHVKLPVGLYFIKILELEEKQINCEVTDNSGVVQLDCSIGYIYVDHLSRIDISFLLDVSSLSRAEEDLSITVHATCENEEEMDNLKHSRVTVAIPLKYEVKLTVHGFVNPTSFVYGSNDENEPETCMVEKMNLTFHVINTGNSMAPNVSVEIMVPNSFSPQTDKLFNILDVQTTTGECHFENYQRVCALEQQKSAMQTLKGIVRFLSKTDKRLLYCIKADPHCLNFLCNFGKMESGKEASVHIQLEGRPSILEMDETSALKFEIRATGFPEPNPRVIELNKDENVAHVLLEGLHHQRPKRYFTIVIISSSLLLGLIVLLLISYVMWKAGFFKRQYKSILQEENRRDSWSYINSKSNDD
T1 sequence (P05556 21-798): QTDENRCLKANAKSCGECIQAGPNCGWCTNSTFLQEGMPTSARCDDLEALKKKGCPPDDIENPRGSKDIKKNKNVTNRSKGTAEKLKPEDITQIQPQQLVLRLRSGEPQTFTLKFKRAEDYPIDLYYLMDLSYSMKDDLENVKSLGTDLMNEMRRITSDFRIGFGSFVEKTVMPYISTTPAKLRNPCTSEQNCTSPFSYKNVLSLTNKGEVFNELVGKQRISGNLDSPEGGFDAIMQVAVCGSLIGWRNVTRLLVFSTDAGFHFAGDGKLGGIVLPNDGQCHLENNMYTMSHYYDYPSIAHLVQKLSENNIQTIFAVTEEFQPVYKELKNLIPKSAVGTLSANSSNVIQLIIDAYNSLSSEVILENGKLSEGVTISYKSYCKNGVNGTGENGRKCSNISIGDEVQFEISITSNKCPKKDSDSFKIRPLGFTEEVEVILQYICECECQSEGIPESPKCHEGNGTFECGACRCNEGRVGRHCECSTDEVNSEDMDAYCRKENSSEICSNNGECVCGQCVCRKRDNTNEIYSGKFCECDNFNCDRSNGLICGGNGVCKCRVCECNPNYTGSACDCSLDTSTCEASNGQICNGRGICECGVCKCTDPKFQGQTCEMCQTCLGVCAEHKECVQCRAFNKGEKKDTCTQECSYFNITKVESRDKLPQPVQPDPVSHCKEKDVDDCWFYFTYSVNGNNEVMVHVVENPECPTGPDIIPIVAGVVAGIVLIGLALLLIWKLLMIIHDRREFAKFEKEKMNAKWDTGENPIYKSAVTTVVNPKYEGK

Row | SMILES | binding inhibition (in words) (VLA-4; compared to standard 10-mer / B12) | RELATIVE POTENCY (inhibition of VLA-4 binding CS-1) (VLA-4) | RELATIVE POTENCY (inhibition of VLA-4 binding CS-1) (VLA-4; listed as N--phenylacetyl--Asp--Leu--Phe--D--Pro--NH2) | PC400, carbacol dosage to increase SRL 4-fold, 24 hours after challenge (asthmatic sheep) | swelling at challenge site (in words) (BALB/c mice) | VLA-4 binding inhibition, times better than the standard 10-mer peptide of SEQ ID NO:3 (VLA-4) | change in specific lung resistance (SRL) after challenge (FIG. 7) (asthmatic sheep; 1 mg/kg nebulized twice a day, versus control peptide) | Percent Inhibition (BALB/c mice; expanded study, 6 mg/kg/day, versus vehicle)
1 | CC(C)C[C@H](NC(=O)[C@H](CC(=O)O)NC(=O)Cc1ccccc1)C(=O)N[C@@H](Cc1ccccc1)C(=O)N1CCC[C@@H]1C(N)=O [X L D F p phenylacetyl amide scrambled, N--phenylacetyl--Asp--Leu--Phe--D--Pro--NH2, reference compound] (PhAc-DLF[dP]-NH2) | no inhibition of VLA-4 | 0 | < 1 | about 12 BU | no reduction of inflammation |  |  | 
2 | CC(C)C[C@H](NC(=O)Cc1ccccc1)C(=O)N[C@@H](CC(=O)O)C(=O)N[C@@H](Cc1ccccc1)C(=O)N1CCC[C@@H]1C(N)=O [X L D F p phenylacetyl amide, N--phenylacetyl--Leu--Asp--Phe--D--Pro--NH2] (PhAc-LDF[dP]-NH2) |  | 313 |  | about 27 BU | reduced thi type of CS1/VLA-4-mediated immunoinflammation | about 312 times | less of a change from baseline specific lung resistance | 36%
